Results reported in the supplement of paper PMC8671470.

What was measured:
Conditions in all cases: 72 h
NOMO-1 [1] = tested on: NOMO-1
Method in brief: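 Fifteen myeloid leukaemia lines were incubated for 72 h at 37 °C with 5% CO2 across five tenfold doses from 1 to 10,000 nM, in duplicate. ATP luminescence was normalised to vehicle and to a positive control at 10 µM and fitted with a four-parameter log-logistic model. The IC50 came from these dose–response fits.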

HL-60 [2] = experiment: cell viability (% survival relative to DMSO control); higher = less cytotoxic
Method in brief: (§1)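 In 384-well plates, the full library was rescreened in duplicate on HL-60 cells in RPMI 1640 with 10% FBS, at 1–10,000 nM in five tenfold concentrations, for 72 h at 37 °C, 5% CO2. Each run also held DMSO or 100 nM of one of three metabolic inhibitors. Viability was measured by CellTiter-Glo and normalised to DMSO wells and to wells with proteasome inhibitor, present at 10 μM. Any area under the curve comes from four-parameter log-logistic fitting with drc and PharmacoGx.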

BV-173 = experiment: cell viability (% survival relative to DMSO control, bortezomib = 0%); higher = less cytotoxic
Method in brief: (§2)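 Fifteen myeloid leukaemia cell lines were exposed to compounds at 1, 10, 100, 1000 or 10000 nM in 384-well plates for 72 h at 37 °C and 5% CO2. Viability was read by CellTiter-Glo luminescence and normalised, with vehicle as 100% and a 10 µM positive control as 0%. Values are percent survival averaged over duplicates.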

HEL = experiment: as above
Method in brief: as §2

HL-60 [3] = experiment: as above
Method in brief: as §2

K-562 = experiment: as above
Method in brief: as §2

KCL-22 = experiment: as above
Method in brief: as §2

KG-1 = experiment: as above
Method in brief: as §2

KU-812 = experiment: as above
Method in brief: as §2

LAMA-84 = experiment: as above
Method in brief: as §2

ML-2 = experiment: as above
Method in brief: as §2

MOLM-13 = experiment: as above
Method in brief: as §2

MV4-11 = experiment: as above
Method in brief: as §2

Mono-Mac-6 = experiment: as above
Method in brief: as §2

NOMO-1 [4] = experiment: as above
Method in brief: as §2

SHI-1 = experiment: as above
Method in brief: as §2

THP-1 = experiment: as above
Method in brief: as §2

HL-60 [5] = experiment: area under dose-response curve (viability, 1 nM-10 uM) (fraction (0-1)); higher = more sensitive
Method in brief: as §1

Clc1cc(Cl)c(OCC#CI)cc1Cl [Haloprogin]
Conditions | IC50 (cell viability) [µM]
NOMO-1 [1] | 3.09

cell viability [%], HL-60 [2]
Conditions | 0.001 µM | 0.01 µM | 0.1 µM | 1 µM | 10 µM
co-treatment: AZD3965 100 nM | 103 | 102 | 104 | 99.73 | 3.01
co-treatment: DMSO vehicle | 102 | 103 | 106 | 104 | 57.3
co-treatment: GSK2194069 100 nM | 95.5 | 107 | 96.4 | 105 | 71.4
co-treatment: pictilisib 100 nM | 92.6 | 96.3 | 107 | 105 | 14.4

Conditions | area under dose-response curve, co-treatment: AZD3965 100 nM | area under dose-response curve, co-treatment: DMSO vehicle | area under dose-response curve, co-treatment: GSK2194069 100 nM | area under dose-response curve, co-treatment: pictilisib 100 nM | cell viability, 1 nM [%] | cell viability, 10 nM [%] | cell viability, 100 nM [%] | cell viability, 1000 nM [%] | cell viability, 10000 nM [%]
BV-173 | – | – | – | – | 120 | 93 | 104 | 71.5 | 0.185
HEL | – | – | – | – | 103 | 101 | 106 | 106 | 0.615
HL-60 [3] | – | – | – | – | 92.2 | 109 | 108 | 109 | 51.4
HL-60 [5] | 0.125 | 0.032 | < 0.0301 | 0.0952 | – | – | – | – | –
K-562 | – | – | – | – | 93.8 | 91.4 | 92.6 | 95.6 | 18.1
KCL-22 | – | – | – | – | 95.9 | 97.1 | 104 | 73.9 | 2.51
KG-1 | – | – | – | – | 108 | 101 | 101 | 101 | 0.829
KU-812 | – | – | – | – | 104 | 95 | 107 | 80.6 | 2.77
LAMA-84 | – | – | – | – | 94.4 | 94.6 | 99.9 | 101 | 21.7
ML-2 | – | – | – | – | 106 | 108 | 113 | 102 | -0.066
MOLM-13 | – | – | – | – | 100 | 113 | 112 | 108 | 6.57
MV4-11 | – | – | – | – | 109 | 98 | 101 | 89 | 0.356
Mono-Mac-6 | – | – | – | – | 103 | 95.7 | 98.8 | 94.1 | 0.149
NOMO-1 [4] | – | – | – | – | 109 | 103 | 109 | 98.2 | 0.243
SHI-1 | – | – | – | – | 97.8 | 112 | 107 | 99.5 | 62.6
THP-1 | – | – | – | – | 101 | 97.4 | 100 | 74 | 0.288

Cl.NC1=CCCN1Cc1nc(O)nc(O)c1Cl [Tipiracil]
Conditions | IC50 (cell viability) [µM]
NOMO-1 [1] | > 10

cell viability [%], HL-60 [2]
Conditions | 0.001 µM | 0.01 µM | 0.1 µM | 1 µM | 10 µM
co-treatment: AZD3965 100 nM | 98.3 | 102 | 99.7 | 101 | 99.5
co-treatment: DMSO vehicle | 97.2 | 94.3 | 102 | 99.34 | 100.1
co-treatment: GSK2194069 100 nM | 98.7 | 97.9 | 97.8 | 98.6 | 88
co-treatment: pictilisib 100 nM | 93 | 100 | 93.7 | 97 | 86.7

Conditions | area under dose-response curve, co-treatment: AZD3965 100 nM | area under dose-response curve, co-treatment: DMSO vehicle | area under dose-response curve, co-treatment: GSK2194069 100 nM | area under dose-response curve, co-treatment: pictilisib 100 nM | cell viability, 1 nM [%] | cell viability, 10 nM [%] | cell viability, 100 nM [%] | cell viability, 1000 nM [%] | cell viability, 10000 nM [%]
BV-173 | – | – | – | – | 108 | 95.1 | 97.9 | 99.5 | 106
HEL | – | – | – | – | 122 | 102 | 112 | 111 | 103
HL-60 [3] | – | – | – | – | 98.8 | 97.2 | 127 | 130 | 119
HL-60 [5] | < 0.0301 | < 0.0301 | < 0.0301 | < 0.0301 | – | – | – | – | –
K-562 | – | – | – | – | 106 | 99.8 | 105 | 115 | 106
KCL-22 | – | – | – | – | 115 | 90.2 | 105 | 114 | 90.8
KG-1 | – | – | – | – | 98.2 | 95.1 | 111 | 107 | 111
KU-812 | – | – | – | – | 101 | 88.8 | 104 | 108 | 99.7
LAMA-84 | – | – | – | – | 115 | 94.8 | 98.7 | 110 | 102
ML-2 | – | – | – | – | 108 | 92.7 | 114 | 105 | 104
MOLM-13 | – | – | – | – | 104 | 96.3 | 122 | 121 | 93.6
MV4-11 | – | – | – | – | 107 | 105 | 109 | 104 | 106
Mono-Mac-6 | – | – | – | – | 122 | 96.2 | 107 | 100 | 96.5
NOMO-1 [4] | – | – | – | – | 106 | 100 | 100 | 100 | 99.2
SHI-1 | – | – | – | – | 107 | 106 | 125 | 113 | 116
THP-1 | – | – | – | – | 102 | 97.2 | 102 | 101 | 101

Cn1cc(C[C@@H](N)C(=O)O)c2ccccc21 [Indoximod]
Conditions | IC50 (cell viability) [µM]
NOMO-1 [1] | > 10

cell viability [%], HL-60 [2]
Conditions | 0.001 µM | 0.01 µM | 0.1 µM | 1 µM | 10 µM
co-treatment: AZD3965 100 nM | 89.7 | 96.1 | 104 | 106 | 101
co-treatment: DMSO vehicle | 100 | 98.7 | 112 | 110 | 96.7
co-treatment: GSK2194069 100 nM | 96.5 | 88.55 | 115 | 113 | 86.2
co-treatment: pictilisib 100 nM | 110 | 63.4 | 120 | 123 | 93.9

Conditions | area under dose-response curve, co-treatment: AZD3965 100 nM | area under dose-response curve, co-treatment: DMSO vehicle | area under dose-response curve, co-treatment: GSK2194069 100 nM | area under dose-response curve, co-treatment: pictilisib 100 nM | cell viability, 1 nM [%] | cell viability, 10 nM [%] | cell viability, 100 nM [%] | cell viability, 1000 nM [%] | cell viability, 10000 nM [%]
BV-173 | – | – | – | – | 134 | 95.3 | 90.6 | 84.7 | 100
HEL | – | – | – | – | 110 | 97.1 | 85.8 | 120 | 100
HL-60 [3] | – | – | – | – | 102 | 90.2 | 116 | 97.3 | 106
HL-60 [5] | < 0.0301 | < 0.0301 | < 0.0301 | < 0.0301 | – | – | – | – | –
K-562 | – | – | – | – | 103 | 108 | 79.8 | 87.5 | 89.9
KCL-22 | – | – | – | – | 109 | 86.8 | 82.5 | 106 | 101
KG-1 | – | – | – | – | 107 | 99 | 102 | 99.2 | 97.6
KU-812 | – | – | – | – | 93.8 | 101 | 90.9 | 105 | 95.6
LAMA-84 | – | – | – | – | 94.5 | 97.2 | 91.1 | 113 | 94.7
ML-2 | – | – | – | – | 97.8 | 97.2 | 100 | 106 | 92.9
MOLM-13 | – | – | – | – | 104 | 97.7 | 81.3 | 86.8 | 76.7
MV4-11 | – | – | – | – | 93.3 | 88.2 | 103 | 85.5 | 94.9
Mono-Mac-6 | – | – | – | – | 104 | 102 | 92.9 | 97.7 | 91.8
NOMO-1 [4] | – | – | – | – | 112 | 96.2 | 95.6 | 117 | 99
SHI-1 | – | – | – | – | 96 | 101 | 102 | 107 | 104
THP-1 | – | – | – | – | 99.3 | 96.4 | 102 | 94.8 | 98.4
